Test results from patent publication US20050245397A1, “Use of nickel to correct growth disorders in plants” (priority 2004, published 2005).
Read-outs that look alike come from different tables or passages of the source.

Assays:
[1] = test system: severely mouse-eared 'Desirable' pecan trees; format: in vivo; details: October foliar spray till run-off, NiSO4.6H2O about 3.5 g/L or CuSO4.5H2O about 4 g/L with urea and surfactant, orchard transplants, rated following May, scale 1 = no symptoms to 10 = most severe
[2] = test system: pecan trees exhibiting severe mouse-ear; format: in vivo; details: early April foliar spray at late parachute stage, treatments as in Example 8, orchard transplants, subsequent shoot growth, scale 1-10
[3] = test system: 1-year-old 'Desirable' pecan seedlings potted in mouse-ear orchard soil; test: October foliar copper or nickel at 0-8X on potted greenhouse pecan seedlings, mouse-ear rated in spring; format: in vivo, pecan [Carya illinoinensis (Wangenh.) K. Koch]; details: autumn foliar copper 1X-8X, X = about 1.98 g copper sulfate per liter
pecans with mouse-ear = test: Inventors' orchard observations of soil or foliar copper, phosphorus, sulfur on mouse-ear; format: in vivo, pecan [Carya illinoinensis (Wangenh.) K. Koch]; details: for effect on mouse-ear, soil application of high amounts: 1st generation orchard site
[4] = test system: pecan seedlings exhibiting severe nickel deficiency, i.e., mouse-ear; format: in vivo, pecan [Carya illinoinensis (Wangenh.) K. Koch]; details: foliar spray in the spring during bud break, tested 0-1000 ppm

## O.O.O.O.O.O=S(=O)([O-])[O-].[Cu+2] [Copper, CuSO4.5H2O]
[1]
  Mouse-ear Severity (Class): 7.6 a Class
[1]; listed as copper
  Mouse-ear Severity (Class): 7.6 Class
[2]
  Mouse-ear Severity (Class): 8.1 a Class
[2]; listed as copper
  Mouse-ear Severity (Class): about 8.1 Class
[3]
  effect on mouse-ear severity the following spring: failed to correct mouse-ear and actually increased severity of mouse-ear as the concentration of applied copper increased
Pecans with mouse-ear; 2nd generation site
  effect on mouse-ear, soil applied at time of transplanting: corrects mouse-ear on one 2nd generation site
Pecans with mouse-ear; in vivo
  effect on mouse-ear, foliar applications: little or no curative influence on mouse-ear severity
Pecans with mouse-ear; trees with mild to moderate mouse-ear on a 1st generation site
  effect on mouse-ear, topical application to the soil: largely cured of mouse-ear by the 3rd year

## [P] [phosphorus]
Pecans with mouse-ear
  effect on mouse-ear, soil application of high amounts: corrected mouse-ear symptoms three years after application

## S1SSSSSSS1 [sulfur]
Pecans with mouse-ear
  effect on mouse-ear, soil application of high amounts: corrected mouse-ear symptoms three years after application

## nickel lignosulfonate
[4]
  nickel concentration at which foliar application corrected mouse-ear / nickel deficiency: ≥ 10 ppm
